{"source": "patent US20220354121A1", "about": "“EXTERNALLY HEATED GEL REPELLENT” (Lamplight Farms Incorporated, priority 2021, published 2022)", "origin": "cited, not measured here", "system": "insect", "conditions": "release into local atmosphere"}
{"molecule": "C/C=C/C1C(C(=O)OCc2c(F)c(F)c(COC)c(F)c2F)C1(C)C", "note": "(stereo not shown) [metofluthrin]", "values": [{"measurement": "metofluthrin release known to be sufficient for local repellency purposes", "result": "7 to 12", "unit": "mg/h"}]}
